From PMC10020352 (Frontiers in Pharmacology, 2023)
pEC50: −log10 of the molar value. Where a SMILES comes first, the peptide text is derived from it. [ ]: non-standard residue; d: D form. Phe(4-NO2) = N[C@@H](Cc1ccc([N+](=O)[O-])cc1)C(=O)O; Phe(4-Cl) = N[C@@H](Cc1ccc(Cl)cc1)C(=O)O; Phe(4-F) = N[C@@H](Cc1ccc(F)cc1)C(=O)O; NMeR = CN[C@@H](CCCNC(=N)N)C(=O)O; Aoc = NCCCCCCCC(=O)O; Ahx = NCCCCCC(=O)O; Sar = CNCC(=O)O

How the values were obtained:
[1] = biological target: T1, bovine pancreatic trypsin (Bos taurus, UniProt P00760); experiment: Metabolic stability in trypsin; type: in vitro ADME; conditions: bovine pancreatic trypsin 2.5 μg/mL, pH 8-8.5, 37°C, peptide 100 μM; read-out: Stability (t1/2) Trypsin
T1 sequence (P00760 24-246): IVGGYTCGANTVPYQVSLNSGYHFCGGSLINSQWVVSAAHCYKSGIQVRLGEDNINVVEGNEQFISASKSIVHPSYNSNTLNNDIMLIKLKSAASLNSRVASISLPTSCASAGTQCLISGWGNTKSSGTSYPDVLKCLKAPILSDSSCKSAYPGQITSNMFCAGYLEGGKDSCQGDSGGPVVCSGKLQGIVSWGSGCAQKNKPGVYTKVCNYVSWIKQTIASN
Method: (§1) Whole blood was collected in-house from adult mixed-gender Wistar rats (RRID: RGD_150520162), and plasma was prepared in 0.2% EDTA as per standard practice. Peptides (final 100 μM) were incubated with pooled rat plasma at 37°C. Samples were collected at different time intervals 0, 5, 10, 15, 30, 60, and 120 min. At each time point, collected samples were immediately added to three volumes of cold ACN. This mixture was vortexed for 30 s and then centrifuged at room temperature (13 K rpm, 5 min). The supernatant was taken and directly placed in glass HPLC vials for LCMS analysis. The protocol for the trypsin stability assay was as for the plasma stability assay except for the […] (bovine pancreatic trypsin 2.5 μg/mL in NH4HCO3 buffer, approx. pH 8–8.5, 37°C).
(§2) Relative concentrations of each peptide from stability assays in plasma or trypsin were analysed using an Agilent binary LC system consisting of an Agilent 1290 Infinity LC pump, Agilent 1,290 auto-sampler coupled with Triple Quad Mass-Spectrometer (MS, model 6460, Agilent Technologies). A bidentate C18 HPLC column (Cogent, 100 Å, […]) with a binary solvent gradient composed of Solvent: A 0.1%v/v formic acid in MQ water and Solvent B: 0.1% v/v formic acid in ACN was used for the separation. The MS parameters were optimised for all compounds to obtain the highest signal in positive Total Ion Current (TIC) mode. Data were analysed using a combination of Microsoft Excel and GraphPad Prism software packages. Data was normalised to time point zero (immediately after compound addition) and expressed in percentages from t = 0. Half-lives were calculated in GraphPad Prism software (v8.3).

KOP receptor = KOP receptor (Homo sapiens, UniProt P41145); experiment: cell-based; type: cell-based
Sequence of KOP receptor (P41145 whole entry): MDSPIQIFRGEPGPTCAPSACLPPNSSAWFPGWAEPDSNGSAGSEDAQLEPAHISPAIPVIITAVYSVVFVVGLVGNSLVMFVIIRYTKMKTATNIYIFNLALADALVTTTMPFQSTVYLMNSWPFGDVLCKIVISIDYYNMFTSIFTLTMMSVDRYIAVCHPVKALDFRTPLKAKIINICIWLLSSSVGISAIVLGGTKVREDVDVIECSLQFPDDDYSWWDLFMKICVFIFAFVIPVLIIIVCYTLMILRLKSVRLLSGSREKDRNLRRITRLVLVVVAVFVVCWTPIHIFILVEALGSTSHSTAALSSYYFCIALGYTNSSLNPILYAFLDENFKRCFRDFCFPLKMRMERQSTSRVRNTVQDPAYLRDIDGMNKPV

DOP receptor = biological target: T2, DOP receptor (Homo sapiens, UniProt P41143); experiment: cell-based
T2 construct: expressed in transfected cells; host or cells: HEK293
T2 sequence (P41143 whole entry): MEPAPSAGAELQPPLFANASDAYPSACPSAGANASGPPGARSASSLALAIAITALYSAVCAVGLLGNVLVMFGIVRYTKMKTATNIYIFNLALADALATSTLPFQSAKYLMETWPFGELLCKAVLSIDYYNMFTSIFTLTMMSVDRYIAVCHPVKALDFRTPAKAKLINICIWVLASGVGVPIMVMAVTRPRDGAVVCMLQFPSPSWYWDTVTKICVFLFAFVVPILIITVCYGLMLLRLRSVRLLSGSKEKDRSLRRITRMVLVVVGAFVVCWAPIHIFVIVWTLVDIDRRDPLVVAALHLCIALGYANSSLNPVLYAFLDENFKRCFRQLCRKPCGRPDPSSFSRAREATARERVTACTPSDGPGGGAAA

MOP receptor = biological target: T3, MOP receptor (Homo sapiens, UniProt P35372); experiment: cell-based
T3 construct: expressed in transfected cells; host or cells: HEK293
T3 sequence (P35372 whole entry): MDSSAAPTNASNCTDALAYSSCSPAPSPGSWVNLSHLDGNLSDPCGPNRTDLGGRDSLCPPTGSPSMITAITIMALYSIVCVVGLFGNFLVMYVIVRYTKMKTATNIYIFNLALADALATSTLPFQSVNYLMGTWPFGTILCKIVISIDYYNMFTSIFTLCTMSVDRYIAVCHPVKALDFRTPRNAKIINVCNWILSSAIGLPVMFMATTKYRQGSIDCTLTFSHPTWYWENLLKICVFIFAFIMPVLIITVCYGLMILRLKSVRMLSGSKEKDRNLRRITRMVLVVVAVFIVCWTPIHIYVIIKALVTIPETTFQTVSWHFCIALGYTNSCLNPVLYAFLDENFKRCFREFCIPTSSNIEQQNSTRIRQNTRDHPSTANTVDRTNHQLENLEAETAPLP

[2] = Metabolic stability in rat plasma; type: in vitro ADME; conditions: pooled rat plasma, 37°C, peptide 100 μM; for half-life: rat, plasma, read-out: Stability (t1/2) Plasma
Method: as §1, §2

[3] = system: FCA model of inflammatory nociception; conditions: rat, in vivo

| Compound | half-life [1] | pEC50 (KOP receptor) | pEC50 (DOP receptor) | Selectivity (fold) KOP/DOP (DOP receptor) | pEC50 (MOP receptor) | Selectivity (fold) KOP/DOP (MOP receptor) | half-life [2] | Stability (t1/2) Plasma [2] | selectivity for KOP receptor over MOP receptor and DOP receptor (KOP receptor) | paw withdrawal threshold in the contralateral (uninflamed, untreated) paw [3] |
| --- | --- | --- | --- | --- | --- | --- | --- | --- | --- | --- |
| CC(C)C[C@@H](NC(=O)[C@@H](Cc1ccccc1)NC(=O)[C@H](N)Cc1ccccc1)C(=O)N[C@H](CCCCN)C(=O)N1CCC(N)(C(=O)O)CC1 [CR845, reference compound] | > 1000 min |  |  |  |  |  |  |  |  |  |
| CC(C)C[C@H](NC(=O)[C@H](Cc1ccc([N+](=O)[O-])cc1)NC(=O)CNC(=O)CNC(=O)[C@@H](N)Cc1ccc(O)cc1)C(=O)N[C@@H](CCCNC(=N)N)C(=O)N[C@H](CCCNC(=N)N)C(N)=O [KA201] | 6.4 min | 5.96 | 5.66 | 2 fold | 5.77 | 2 fold |  |  |  |  |
| CC(C)C[C@H](NC(=O)[C@H](Cc1ccc([N+](=O)[O-])cc1)NC(=O)CNC(=O)CN(C)C(=O)[C@@H](N)Cc1ccc(O)cc1)C(=O)N[C@@H](CCCNC(=N)N)C(=O)N[C@H](CCCNC(=N)N)C(N)=O [KA202] | 8.5 min | 6.03 | < 5.00 |  | < 5.00 |  |  |  |  |  |
| CC(C)C[C@H](NC(=O)[C@H](Cc1ccccc1)NC(=O)CN(C)C(=O)[C@@H](N)Cc1ccc(O)cc1)C(=O)N[C@@H](CCCNC(=N)N)C(=O)N[C@H](CCCNC(=N)N)C(N)=O [KA203] (H-Y[Sar]FLR[dR]-NH2) | 13.6 min | 7.13 | < 5.00 |  | < 5.00 |  | 72 min |  |  |  |
| CC(C)C[C@H](NC(=O)[C@H](Cc1ccc([N+](=O)[O-])cc1)NC(=O)CN(C)C(=O)[C@@H](N)Cc1ccc(O)cc1)C(=O)N[C@H](CCCNC(=N)N)C(=O)N[C@@H](CCCNC(=N)N)C(N)=O [KA205] (H-Y[Sar][Phe(4-NO2)]L[dR]R-NH2) | 3260 min | 5.75 | 5.41 | 2 fold | < 5.00 |  | 28.7 min |  |  |  |
| CC(C)C[C@H](NC(=O)[C@H](Cc1ccc(Cl)cc1)NC(=O)CN(C)C(=O)[C@@H](N)Cc1ccc(O)cc1)C(=O)N[C@@H](CCCNC(=N)N)C(=O)N[C@H](CCCNC(=N)N)C(N)=O [KA206] (H-Y[Sar][Phe(4-Cl)]LR[dR]-NH2) | 15.9 min | 8.21 | < 5.00 |  | < 5.00 |  | 31.9 min |  |  |  |
| CC(C)C[C@H](NC(=O)[C@H](Cc1ccc(F)cc1)NC(=O)CN(C)C(=O)[C@@H](N)Cc1ccc(O)cc1)C(=O)N[C@@H](CCCNC(=N)N)C(=O)N[C@H](CCCNC(=N)N)C(N)=O [KA207] (H-Y[Sar][Phe(4-F)]LR[dR]-NH2) | 7.6 min | 8.17 | < 5.00 |  | 5.46 | 515 fold | 38.2 min |  |  |  |
| CC(C)C[C@H](NC(=O)[C@H](Cc1ccc(Cl)cc1)NC(=O)CN(C)C(=O)[C@@H](N)Cc1ccc(O)cc1)C(=O)N(C)[C@@H](CCCNC(=N)N)C(=O)N[C@H](CCCNC(=N)N)C(N)=O [KA301] (H-Y[Sar][Phe(4-Cl)]L[NMeR][dR]-NH2) |  |  |  |  |  |  | 2240 min |  |  |  |
| CC(C)C[C@H](NC(=O)[C@H](Cc1ccc(F)cc1)NC(=O)CN(C)C(=O)[C@@H](N)Cc1ccc(O)cc1)C(=O)N(C)[C@@H](CCCNC(=N)N)C(=O)N[C@H](CCCNC(=N)N)C(N)=O [KA302] (H-Y[Sar][Phe(4-F)]L[NMeR][dR]-NH2) | > 1000 min | 7.93 | 5.78 | 143 fold | 5.40 | 344 fold |  | 323.9 min |  |  |
| CC(C)C[C@H](NC(=O)[C@H](Cc1ccc([N+](=O)[O-])cc1)NC(=O)CN(C)C(=O)[C@@H](N)Cc1ccc(O)cc1)C(=O)N(C)[C@@H](CCCNC(=N)N)C(=O)N[C@H](CCCNC(=N)N)C(N)=O [KA303] (H-Y[Sar][Phe(4-NO2)]L[NMeR][dR]-NH2) | 12.1 min | 7.87 | 5.88 | 98 fold | < 5.00 |  | 168 min |  |  |  |
| CC(C)C[C@H](NC(=O)[C@H](Cc1ccc(Cl)cc1)NC(=O)CN(C)C(=O)[C@@H](N)Cc1ccc(O)cc1)C(=O)N[C@@H](CCCNC(=N)N)C(=O)N[C@H](CCCNC(=N)N)C(=O)NCCCCCC(N)=O [KA304] (H-Y[Sar][Phe(4-Cl)]LR[dR][Ahx]-NH2) | 8.33 min | 8.44 | 5.80 | 440 fold | 6.44 | 100 fold | 79 min |  |  |  |
| CC(C)C[C@H](NC(=O)[C@H](Cc1ccc(Cl)cc1)NC(=O)CN(C)C(=O)[C@@H](N)Cc1ccc(O)cc1)C(=O)N[C@@H](CCCCN)C(=O)N[C@H](CCCNC(=N)N)C(N)=O [KA306] (H-Y[Sar][Phe(4-Cl)]LK[dR]-NH2) | 69.9 min | 7.59 | < 5.00 |  | < 5.00 |  | 160 min |  |  |  |
| CC(C)C[C@H](NC(=O)[C@H](Cc1ccc(Cl)cc1)NC(=O)[C@H](C)NC(=O)[C@@H](N)Cc1ccc(O)cc1)C(=O)N[C@@H](CCCNC(=N)N)C(=O)N[C@H](CCCNC(=N)N)C(N)=O [KA307] (H-YA[Phe(4-Cl)]LR[dR]-NH2) |  | 5.98 | < 5.00 |  | 5.73 | 2 fold |  |  |  |  |
| C[C@@H](O)[C@H](NC(=O)[C@H](Cc1ccc(Cl)cc1)NC(=O)CN(C)C(=O)[C@@H](N)Cc1ccc(O)cc1)C(=O)N[C@@H](CCCNC(=N)N)C(=O)N[C@H](CCCNC(=N)N)C(N)=O [KA308] (H-Y[Sar][Phe(4-Cl)]TR[dR]-NH2) |  | 6.64 | < 5.00 |  | 5.23 | 25 fold |  |  |  |  |
| CC(C)C[C@H](NC(=O)[C@H](Cc1ccc(Cl)cc1)NC(=O)CN(C)C(=O)[C@@H](N)Cc1ccc(O)cc1)C(=O)N[C@@H](CCCNC(=N)N)C(=O)N(C)[C@@H](CCCNC(=N)N)C(N)=O [KA309] (H-Y[Sar][Phe(4-Cl)]LR[NMeR]-NH2) | > 1000 min | 8.41 | < 5.00 |  | < 5.00 |  |  | 174.1 min |  |  |
| CC(C)C[C@H](NC(=O)[C@H](Cc1ccc([N+](=O)[O-])cc1)NC(=O)CN(C)C(=O)[C@@H](N)Cc1ccc(O)cc1)C(=O)N[C@@H](CCCNC(=N)N)C(=O)N(C)[C@@H](CCCNC(=N)N)C(N)=O [KA310] (H-Y[Sar][Phe(4-NO2)]LR[NMeR]-NH2) | > 1000 min | 8.75 | < 5.00 |  | < 5.00 |  |  |  | > 1000 fold |  |
| CC(C)C[C@H](NC(=O)[C@H](Cc1ccc(Cl)cc1)NC(=O)CN(C)C(=O)[C@@H](N)Cc1ccc(O)cc1)C(=O)N[C@@H](CCCNC(=N)N)C(=O)N(C)[C@@H](CCCNC(=N)N)C(=O)NCCCCCCCC(N)=O [KA312] (H-Y[Sar][Phe(4-Cl)]LR[NMeR][Aoc]-NH2) | 445 min | 8.42 | < 5.00 |  | < 5.00 |  | 15.6 min |  |  |  |
| CC(C)C[C@H](NC(=O)[C@H](Cc1ccc([N+](=O)[O-])cc1)NC(=O)CN(C)C(=O)[C@@H](N)Cc1ccc(O)cc1)C(=O)N[C@@H](CCCNC(=N)N)C(=O)N(C)[C@@H](CCCNC(=N)N)C(=O)NCCCCCCCC(N)=O [KA313] (H-Y[Sar][Phe(4-NO2)]LR[NMeR][Aoc]-NH2) | > 1000 min | 8.35 | < 5.00 |  | < 5.00 |  | 12.5 min |  |  |  |
| CC(C)C[C@H](NC(=O)[C@H](Cc1ccc([N+](=O)[O-])cc1)NC(=O)CN(C)C(=O)[C@@H](N)Cc1ccc(O)cc1)C(=O)N[C@@H](CCCNC(=N)N)C(=O)N[C@H](CCCNC(=N)N)C(=O)NCCCCCCCC(N)=O [KA314] (H-Y[Sar][Phe(4-NO2)]LR[dR][Aoc]-NH2) | 16.1 min | 8.60 | < 5.00 |  | < 5.00 |  | 18.6 min |  |  |  |
| CN1CC[C@]23c4c5ccc(O)c4O[C@H]2[C@@H](O)C=C[C@H]3[C@H]1C5 [Morphine, reference compound] |  |  |  |  |  |  |  |  |  | significantly reduced |
